Assay results from patent US10494365B2, “Small molecule inhibitor of 3-phosphoglycerate dehydrogenase and uses thereof” (The Scripps Research Institute, priority 2015, dated 2019).
Entries after “also recorded” stand apart in the source; their conditions may differ.

Experiments:
cells = test: Acute drug treatment with 13C6-glucose tracing (GCMS, LC-MS/MS); type: cell-based; conditions: LC-MS/MS, greater panel of metabolites
Method: (§2) Carney cells acclimated to growth in MEM (Corning) were plated at 9×10^5 cells per 6 cm dish the night before. The following morning, media was replaced with fresh media containing (1) (1 μM, 15 μM, 30 μM) or vehicle control (DMSO) for 1h. Media was then aspirated, cells were washed with PBS, and fresh glucose free MEM (Gibco) supplemented with ^13C6-glucose (3 g/L, Cambridge Isotopes) and 10% dialyzed FBS containing drug or DMSO was added. After 2h, cells were quickly washed with cold PBS on ice and flash frozen. Polar metabolites were extracted as in the GCMS methods.
(§3) Polar metabolites were extracted with 2 ml MeOH/H2O (4:1) for 30 min on dry ice, scraped, transferred to 2 ml tubes, centrifuged (30 min, 15000 rpm), and the supernatants dried under vacuum. Samples were derivatized as previously described and analyzed on an Agilent 6890 GC instrument. Metabolite quantification was inferred from a standard curve and fractional enrichment of ^13C in metabolites was corrected for the natural abundance of ^13C and ^15N.
(§4) Polar metabolites were extracted and dried as in the GCMS method. Samples were resuspended in 15 μl of HPLC grade water. 5 μl of each sample was injected and analyzed using a 5500 QTRAP triple quadrupole mass spectrometer (AB/Sciex) coupled to a Prominence UFLC system (Shimadzu) as reported previously.
(§5) Newly synthesized serine has a mass-shift of 3 (M+3) due to the incorporation of glucose-derived ^13C via 3-PG. The kinetics of serine labeling were investigated.

Carney cells = test: as above; type: cell-based; conditions: acute treatment; for serine labeling: dose response
Method: as §2, §3, §4, §5

PHGDH [1] = molecular target: T1, PHGDH (Homo sapiens, UniProt O43175); conditions: BS3 cross-linking, SDS-PAGE
T1 sequence (O43175 1-533): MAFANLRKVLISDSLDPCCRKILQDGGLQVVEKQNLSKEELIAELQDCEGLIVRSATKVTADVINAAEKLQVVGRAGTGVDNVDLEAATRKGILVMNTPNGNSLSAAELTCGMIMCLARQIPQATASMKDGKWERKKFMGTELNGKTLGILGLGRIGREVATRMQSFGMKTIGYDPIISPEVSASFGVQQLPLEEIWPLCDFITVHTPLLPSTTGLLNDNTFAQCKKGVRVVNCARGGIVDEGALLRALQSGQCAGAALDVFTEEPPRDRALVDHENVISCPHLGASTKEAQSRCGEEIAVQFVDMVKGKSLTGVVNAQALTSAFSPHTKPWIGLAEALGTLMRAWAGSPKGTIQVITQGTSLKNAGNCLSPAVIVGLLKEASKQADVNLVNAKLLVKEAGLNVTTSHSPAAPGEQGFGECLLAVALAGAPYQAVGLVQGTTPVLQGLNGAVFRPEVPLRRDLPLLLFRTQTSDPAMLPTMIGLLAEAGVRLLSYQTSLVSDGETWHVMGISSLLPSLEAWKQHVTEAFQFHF
From the text: (§6) Samples were run on SDS-PAGE and colloidal coomassie stained (Bio-Rad).

LDH = test: Cross-linking assay, LDH; conditions: BS3 cross-linking, SDS-PAGE
From the text: as §6

MCF7 cells = test: Proliferation assay, MCF7; type: cell-based
Method: (§7) Cells were plated at a low density in 96 or 24 well plates in serine containing media. The following day, media was aspirated, cells were washed with PBS, and fresh serine replete or deplete media containing drug (15 μM, 30 μM) or vehicle (DMSO) was added. Cells were grown for 3 to 5 days, with drug and media changed daily before assaying relative cell numbers.

[2] = tested on: MDA-MB-468, MDA-MB-436, HCC70, and Hs578T; test: cells; conditions: read-out: growth inhibition
Method: as §7

MDH1 = molecular target: T2, MDH1 (Homo sapiens, UniProt P40925); test: MDH1 assay (kit, recombinant enzyme); type: biochemical; conditions: at concentrations consistent with the PHGDH IC50
T2 construct: purchased Sigma SRP6103
T2 sequence (P40925 1-334): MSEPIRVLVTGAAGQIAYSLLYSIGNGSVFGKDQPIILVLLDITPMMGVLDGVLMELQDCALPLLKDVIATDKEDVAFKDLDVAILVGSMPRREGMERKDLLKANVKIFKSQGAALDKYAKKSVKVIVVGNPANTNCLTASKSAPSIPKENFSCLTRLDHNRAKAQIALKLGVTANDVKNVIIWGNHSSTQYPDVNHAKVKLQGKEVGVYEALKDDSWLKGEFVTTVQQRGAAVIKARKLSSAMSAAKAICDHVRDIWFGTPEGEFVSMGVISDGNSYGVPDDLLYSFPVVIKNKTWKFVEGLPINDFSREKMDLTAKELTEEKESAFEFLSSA
Method: (§1) Enzyme activities were assayed using kits (LDH: Sigma MAK06; MDH1: Sigma MAK196-1KT) according to the manufacturer's instructions with commercially available recombinant enzyme (LDH: Sigma 59747; MDH1: Sigma SRP6103).

[3] = tested on: lactate dehydrogenase (LDH); test: LDH assay (kit, recombinant enzyme); type: biochemical; conditions: at concentrations consistent with the PHGDH IC50 / drug concentrations used in cells
Method: as §1

[4] = tested on: MDA-MB-468 (468) breast cancer cells; test: LC-MS/MS metabolite profiling versus PHGDH knockdown; type: cell-based; conditions: 30 μM, 24 hours
Method: MDA-MB-468 (468) breast cancer cells (PHGDH amplified) were grown in DMEM supplemented with FBS (10%), penicillin, and streptomycin. 468 cells stably expressing PHGDH knockdown constructs were generated by infecting 468 cells with lentivirus harboring pLKO.1 shRNAs against PHGDH (sh29) or (sh31) and a nontargeting control (shGFP). Following infections, cells were selected for 2 days using puromycin prior to seeding in 10 cm plates for the experiment. PHGDH knockdown cells (sh29 and sh31) were seeded in 10 cm plates, each in triplicate, and shGFP cells in sextuplet. […] After 24 hours of treatment, the media were aspirated, and cells were washed with cold PBS prior to flash freezing. Subsequently, polar metabolites were extracted with 80% methanol for 30 minutes, scraped, transferred to Eppendorf tubes, centrifuged to remove insoluble matter, and dried. […] Briefly, samples were injected and analyzed using a 5500 QTRAP triple quadrupole mass spectrometer (AB/Sciex) coupled to a Prominence UFLC system (Shimadzu). Approximately 250 metabolites were analyzed by single reaction monitoring (SRM).

PHGDH [5] = molecular target: T1, PHGDH; test: PHGDH assay (NADH fluorescence, PSAT1 coupled); type: biochemical; design: His6; made in house; host or cells: BL21 E. coli
Method: (§8) PHGDH activity was measured in 96-well plates by monitoring NADH fluorescence (Ex340 nm/Em460 nm) over time. PSAT1 was included to prevent product inhibition of PHGDH.

[6] = molecular target: truncated form of PHGDH, which lacks the C-terminal domain (Homo sapiens, UniProt O43175)
Method: as §8

MDA-MB-468 cells = test: Proliferation assay, MDA-MB-468; type: cell-based
Method: as §7

With CCOC(=O)c1sc(NC(=O)c2ccco2)c(SC#N)c1C [Compound (1), Ethyl 5-(furan-2-carboxamido)-3-methyl-4-thiocyanatothiophene-2-carboxylate] the glycolytic metabolites (cells) was “unperturbed”, the serine labeling (Carney cells; 15 μM) was “trended towards a decrease” and the serine labeling (Carney cells; 30 μM) was “significantly decreased”. For the same compound, the “perturbations in labeling (3-PG, pyruvate, lactate versus serine)” value (Carney cells; GCMS) was “specific to serine”, the PHGDH oligomerization state (PHGDH [1]) was “shifted the PHGDH equilibrium from the tetrameric to the dimeric state” and the LDH oligomerization state (LDH) was “No such effect”. The “sensitivity of proliferation to drug” value (MCF7 cells; serine deplete conditions) was “partially sensitive”, the “sensitivity of proliferation to drug” value (MCF7 cells; serine replete conditions) was “insensitive” and the inhibition at 30 µM [2] was 35 to 60%. The “effect on MDH1” value (MDH1) was “no effect”, the “effect on lactate dehydrogenase (LDH)” value [3] was “no effect; also recorded: does not inhibit” and the “purine metabolites (AMP, dAMP, IMP, GDP, dGDP, GMP levels)” value [4] was “down regulated”. The “decrease of intracellular serine levels” value ([4]; normalized to control treatment) was 50%, the “time dependence of onset of inhibition” value (PHGDH [5]; increasing pre-incubation time of drug and PHGDH) was “progressively more potent” and the mode of inhibition (PHGDH [5]; with respect to both substrates, decreasing Vmax) was “non-competitive”. The “inhibition of truncated PHGDH” value [6] was “still inhibited”.
Cc1c(C(=O)O)sc(NC(=O)c2ccco2)c1SC#N [carboxylic acid derivative, 5-(furan-2-carboxamido)-3-methyl-4-thiocyanatothiophene-2-carboxylic Acid] was tested, and the effect on proliferation (MDA-MB-468 cells) was “not effective” and the “potency against and selectivity for PHGDH, acid derivative versus parent” value (PHGDH [5]; in vitro) was “equally potent”.
